This is an account of results in patent US20240208968A1, “ALPHA V BETA 6 AND ALPHA V BETA 1 INTEGRIN INHIBITORS AND USES THEREOF” (DiCE Molecules SV, Inc., priority 2021, published 2024).

The structures appear in SMILES notation. Where a name gives a salt, the structure may show the parent alone.

Assay [1] concerns the target αvβ1 (Homo sapiens, UniProt P05556+P06756). Kind of assay: Solid Phase Integrin αvβ1 Assay. Type of assay: binding. A digest of the protocol:
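Compound competes for αvβ1 binding to immobilized TGFb1-LAP (1 µg/mL coat) in Mn2+ (1 mM MnCl2), 2% BSA binding buffer over 90 min at room temperature, integrin added at 0.2 µg/mL. Read-out: streptavidin-HRP/TMB; IC50 from Levenberg-Marquardt four-parameter fit.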

The target of assay [2] is αvβ6 (Homo sapiens, UniProt P06756+P18564). Kind of assay: Solid Phase Integrin αvβ6 Assay. It is filed as binding. A digest of the protocol:
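Inhibition of αvβ6 binding to immobilized recombinant TGFb1-LAP (1 μg/mL coating), 1 h at room temperature with 1 mM MnCl2 in BSA/TBST buffer, integrin diluted to 0.2 μg/mL before addition. Streptavidin-HRP/TMB read-out; four-parameter logistic fitting gave IC50.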

αvβ1, sequence (P06756 31-992 limits assumed): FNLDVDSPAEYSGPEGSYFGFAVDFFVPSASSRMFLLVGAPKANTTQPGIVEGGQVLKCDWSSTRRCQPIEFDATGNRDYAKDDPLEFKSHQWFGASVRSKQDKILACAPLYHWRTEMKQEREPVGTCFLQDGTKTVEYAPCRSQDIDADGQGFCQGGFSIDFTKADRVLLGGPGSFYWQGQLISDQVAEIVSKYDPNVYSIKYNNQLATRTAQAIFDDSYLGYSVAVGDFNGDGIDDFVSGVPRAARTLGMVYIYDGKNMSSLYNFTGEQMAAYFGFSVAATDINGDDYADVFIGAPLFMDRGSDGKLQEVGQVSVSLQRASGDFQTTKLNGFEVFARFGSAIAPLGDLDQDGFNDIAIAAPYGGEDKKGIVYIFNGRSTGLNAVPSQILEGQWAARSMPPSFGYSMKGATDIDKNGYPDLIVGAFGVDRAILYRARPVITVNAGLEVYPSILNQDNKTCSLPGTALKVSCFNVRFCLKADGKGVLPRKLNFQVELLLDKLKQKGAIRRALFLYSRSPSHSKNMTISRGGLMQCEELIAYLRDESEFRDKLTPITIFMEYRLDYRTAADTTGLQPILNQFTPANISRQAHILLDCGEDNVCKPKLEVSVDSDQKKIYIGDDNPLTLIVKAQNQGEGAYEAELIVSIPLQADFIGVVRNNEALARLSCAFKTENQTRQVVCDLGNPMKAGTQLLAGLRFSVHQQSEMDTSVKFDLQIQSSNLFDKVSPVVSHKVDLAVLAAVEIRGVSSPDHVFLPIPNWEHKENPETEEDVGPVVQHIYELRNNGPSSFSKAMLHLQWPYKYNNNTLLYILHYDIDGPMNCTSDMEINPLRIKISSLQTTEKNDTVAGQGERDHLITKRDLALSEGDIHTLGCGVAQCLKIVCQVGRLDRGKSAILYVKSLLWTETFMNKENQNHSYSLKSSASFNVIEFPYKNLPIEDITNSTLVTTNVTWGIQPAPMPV
αvβ1, sequence (P05556 21-728 limits assumed): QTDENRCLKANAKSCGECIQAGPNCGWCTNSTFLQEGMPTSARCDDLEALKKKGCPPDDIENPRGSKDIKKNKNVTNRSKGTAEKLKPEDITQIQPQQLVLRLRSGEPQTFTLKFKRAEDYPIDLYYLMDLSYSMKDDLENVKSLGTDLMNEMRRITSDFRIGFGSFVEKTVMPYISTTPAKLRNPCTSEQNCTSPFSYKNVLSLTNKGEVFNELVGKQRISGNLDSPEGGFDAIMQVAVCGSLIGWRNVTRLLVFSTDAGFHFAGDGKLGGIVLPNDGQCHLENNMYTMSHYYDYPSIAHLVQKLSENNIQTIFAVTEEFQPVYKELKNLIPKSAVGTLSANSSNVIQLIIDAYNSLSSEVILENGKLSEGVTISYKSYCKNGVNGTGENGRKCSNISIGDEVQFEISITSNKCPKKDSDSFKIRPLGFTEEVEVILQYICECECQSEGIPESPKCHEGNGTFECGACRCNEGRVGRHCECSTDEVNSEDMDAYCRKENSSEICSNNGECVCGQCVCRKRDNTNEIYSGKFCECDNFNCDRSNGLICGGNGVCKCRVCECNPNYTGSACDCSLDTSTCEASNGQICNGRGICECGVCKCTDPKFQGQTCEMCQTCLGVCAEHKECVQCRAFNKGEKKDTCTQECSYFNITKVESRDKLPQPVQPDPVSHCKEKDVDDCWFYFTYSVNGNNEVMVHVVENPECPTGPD
αvβ6, sequence (P06756 31-992 limits assumed): as the sequence (P06756 31-992 limits assumed) above
αvβ6, sequence (P18564 22-707 limits assumed): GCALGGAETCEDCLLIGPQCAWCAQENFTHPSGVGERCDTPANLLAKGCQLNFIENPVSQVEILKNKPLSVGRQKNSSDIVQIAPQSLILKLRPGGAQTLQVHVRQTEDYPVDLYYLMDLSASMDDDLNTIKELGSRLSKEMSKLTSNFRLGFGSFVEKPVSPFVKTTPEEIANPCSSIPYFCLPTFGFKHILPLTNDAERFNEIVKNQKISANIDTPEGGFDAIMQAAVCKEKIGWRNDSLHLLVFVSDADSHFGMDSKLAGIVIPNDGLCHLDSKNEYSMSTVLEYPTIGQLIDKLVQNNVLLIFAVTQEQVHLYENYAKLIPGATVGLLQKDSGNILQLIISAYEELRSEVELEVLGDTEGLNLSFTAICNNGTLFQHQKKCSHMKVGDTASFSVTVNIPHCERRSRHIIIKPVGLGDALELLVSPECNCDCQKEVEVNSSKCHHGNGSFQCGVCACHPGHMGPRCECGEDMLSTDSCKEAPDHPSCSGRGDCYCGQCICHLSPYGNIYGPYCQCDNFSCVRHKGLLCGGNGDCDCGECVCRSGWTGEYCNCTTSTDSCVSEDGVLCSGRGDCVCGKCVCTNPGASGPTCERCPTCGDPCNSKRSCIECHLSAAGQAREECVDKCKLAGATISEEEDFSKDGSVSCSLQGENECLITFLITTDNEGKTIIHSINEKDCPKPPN

In general, IC50 refers to the point on the concentration scale where inhibition reaches its midpoint. Higher therefore signals lower potency. Turning to `O=C(NC[C@@H](C(=O)O)c1cccc2cn([C@H]3CCC(F)(F)C3)nc12)[C@@H]1CCCN(CCCc2ccc3c(n2)NCCC3)C1` [Compound 624], the half-inhibitory concentration (IC50) is 100 to 1000 nM in assay [1] and above 1000 nM in assay [2].
For `O=C(NC[C@H](C(=O)O)c1ccc2ccccc2c1)[C@@H]1CCCN(CCCc2ccc3c(n2)NCCC3)C1` [Compound 249-A, 2-(naphthalen-2-yl)-3-((R)-1-(3-(5,6,7,8-tetrahydro-1,8-naphthyridin-2-yl)propyl)piperidine-3-carboxamido)propanoic acid], in that order: below 100 nM and below 100 nM.
For `O=C(O)[C@@H](CO[C@@H]1CCCN(CCCCc2ccc3c(n2)NCCC3)C1)NC(=O)C12CCC(CC1)CC2` [Compound 401], in that order: above 1000 nM and above 1000 nM.
For `O=C(NC[C@H](C(=O)O)c1cnc2c(ccn2CC2CC2)c1)[C@@H]1CCCN(CCCc2ccc3c(n2)NCCC3)C1` [Compound 327], in that order: below 100 nM and below 100 nM.
Turning to `O=C(O)C[C@@H](O[C@@H]1CCCN(CCCCc2ccc3c(n2)NCCC3)C1)c1ccccc1` [Compound 391], the concentration for half-maximal inhibition (IC50) in assay [1] and in assay [2] was above 1000 nM each time.
Turning to `O=C(O)[C@H](CCO[C@@H]1CCCN(CCCc2ccc3c(n2)NCCC3)C1)c1cccc2c1cnn2CC1CC1` [Compound 500], the IC50 in assay [1] is above 1000 nM; in assay [2], 100 to 1000 nM.
With `O=C(NC[C@@H](C(=O)O)c1ccccc1)[C@@H]1CCCN(CCCc2ccc3c(n2)NCCC3)C1` [Compound 246, (S)-2-phenyl-3-((R)-1-(3-(5,6,7,8-tetrahydro-1,8-naphthyridin-2-yl)propyl)piperidine-3-carboxamido)propanoic acid], the half-maximal inhibitory concentration (IC50) in assay [1] and in assay [2] was below 100 nM in each case.
As for `O=C(CC[C@H](NC(=O)[C@H]1CCCN1S(=O)(=O)c1ccccc1)C(=O)O)N[C@H]1CCN(C(=O)CCCc2ccc3c(n2)NCCC3)C1` [Compound 438], the 50% inhibitory concentration (IC50) in assay [1] and in assay [2] was below 100 nM each time.
Consider `CC1(C)CN(c2cccc([C@H](CC(=O)O)NC(=O)[C@@H]3CCCN(CCCc4ccc5c(n4)NCCC5)C3)c2)CC(C)(C)O1` [Compound 242, (S)-3-((R)-1-(3-(5,6,7,8-tetrahydro-1,8-naphthyridin-2-yl)propyl)piperidine-3-carboxamido)-3-(3-(2,2,6,6-tetramethylmorpholino)phenyl)propanoic acid], for which the IC50 in assay [1] and in assay [2] was below 100 nM in each case.
For `O=C(N[C@@H](CNC(=O)[C@@H]1CCCN(CCCc2ccc3c(n2)NCCC3)C1)C(=O)O)c1cccc2c1CCC2` [Compound 549], the IC50 in assay [1] and in assay [2] was below 100 nM each time.
Consider `O=C(O)CC(NC(=O)[C@@H]1CCCN(CCCc2ccc3c(n2)NCCC3)C1)c1cc(Cl)cc(C(F)(F)F)c1` (stereo partly drawn) [Compound 222, 3-(3-chloro-5-(trifluoromethyl)phenyl)-3-((R)-1-(3-(5,6,7,8-tetrahydro-1,8-naphthyridin-2-yl)propyl)piperidine-3-carboxamido)propanoic acid hydrochloride], for which the IC50 in assay [1] and in assay [2] was below 100 nM in each case.
In the case of `O=C(N[C@@H](CNC(=O)[C@@H]1CCCN(CCCc2ccc3c(n2)NCCC3)C1)C(=O)O)c1ccc(C2CC2)cc1` [Compound 369], the half-maximal inhibitory concentration (IC50) in assay [1] and in assay [2] was below 100 nM throughout.
Regarding `O=C(O)C(CNC(=O)[C@@H]1CCCN(CCCc2ccc3c(n2)NCCC3)C1)c1cc(-c2ccccc2)ccn1` (some centres unmarked) [Compound 628], the IC50 in assay [1] and in assay [2] was below 100 nM throughout.
Turning to `CC1(C(=O)N[C@@H](CNC(=O)[C@@H]2CCCN(CCCc3ccc4c(n3)NCCC4)C2)C(=O)O)CCCCC1` [Compound 263, (S)-2-(1-methylcyclohexane-1-carboxamido)-3-((R)-1-(3-(5,6,7,8-tetrahydro-1,8-naphthyridin-2-yl)propyl)piperidine-3-carboxamido)propanoic acid hydrochloride], the IC50 in assay [1] and in assay [2] was below 100 nM each time.
Regarding `O=C(NC[C@H](Nc1ncnc2cc(C(F)(F)F)ccc12)C(=O)O)[C@@H]1CCCN(CCCc2ccc3c(n2)NCCC3)C1` [Compound 282, (S)-3-((R)-1-(3-(5,6,7,8-tetrahydro-1,8-naphthyridin-2-yl)propyl)piperidine-3-carboxamido)-2-((7-(trifluoromethyl)quinazolin-4-yl)amino)propanoic acid hydrochloride], the IC50 in assay [1] and in assay [2] was below 100 nM in each case.
Consider `O=C(NC[C@H](C(=O)O)c1cccc(C2CC2)c1)[C@@H]1CCCN(CCCc2ccc3c(n2)NCCC3)C1` [Compound 258-A, 2-(3-cyclopropylphenyl)-3-((R)-1-(3-(5,6,7,8-tetrahydro-1,8-naphthyridin-2-yl)propyl)piperidine-3-carboxamido)propanoic acid], for which the half-inhibitory concentration (IC50) in assay [1] and in assay [2] was 100 to 1000 nM in each case.
As to `O=C(O)[C@H](CCO[C@@H]1CCCN(CCCc2ccc3c(n2)NCCC3)C1)NC(=O)[C@@H]1CCCN1S(=O)(=O)c1ccccc1` [Compound 476], the half-inhibitory concentration (IC50) in assay [1] and in assay [2] was below 100 nM each time.
`O=C(NC[C@@H](C(=O)O)c1cccc2nn(CC3CC3)cc12)[C@@H]1CCCN(CCCc2ccc3c(n2)NCCC3)C1` [Compound 316]: the figures for the IC50 in assay [1] and in assay [2] were 100 to 1000 nM and above 1000 nM, respectively.
For `C[C@H]1C[C@@H](C(=O)NC[C@@H](C(=O)O)c2cccc(-c3ccccc3)c2)CN(CCCc2ccc3c(n2)NCCC3)C1` [Compound 646], in that order: above 1000 nM and 100 to 1000 nM.
For `O=C(NC[C@H](C(=O)O)c1cccc2ccccc12)[C@@H]1CCCN(CCCc2ccc3c(n2)NCCC3)C1` [Compound 250-B, 2-(naphthalen-1-yl)-3-((R)-1-(3-(5,6,7,8-tetrahydro-1,8-naphthyridin-2-yl)propyl)piperidine-3-carboxamido)propanoic acid], the IC50 is 100 to 1000 nM in assay [1] and above 1000 nM in assay [2].
For `Cc1c[s+]([O-])c2ncnc(N[C@@H](CCO[C@@H]3CCCN(CCCc4ccc5c(n4)NCCC5)C3)C(=O)O)c12` (some centres unmarked) [Compound 509], in that order: below 100 nM and below 100 nM.
For `C[C@@H]1C[C@@H](C(=O)NC[C@@H](C(=O)O)c2ccc3ccccc3c2)CN(CCCc2ccc3c(n2)NCCC3)C1` [Compound 639], the IC50 in assay [1] and in assay [2] was 100 to 1000 nM throughout.
For `O=C(O)C[C@H](CO[C@@H]1CCCN(CCCc2ccc3c(n2)NCCC3)C1)c1ccnc(C2CC2)c1` [Compound 490], the IC50 in assay [1] and in assay [2] was below 100 nM throughout.
Turning to `O=C(O)C[C@H](NC(=O)[C@@H]1CCCN(CCCc2ccc3c(n2)NCCC3)C1)c1cnn(-c2ccccc2)c1` [Compound 616], the half-maximal inhibitory concentration (IC50) in assay [1] and in assay [2] was below 100 nM in each case.
As for `O=C(NC[C@@H](C(=O)O)c1ccc2c(c1)CCCC2)[C@@H]1CCCN(CCCc2ccc3c(n2)NCCC3)C1` [Compound 248-B, 3-((R)-1-(3-(5,6,7,8-tetrahydro-1,8-naphthyridin-2-yl)propyl)piperidine-3-carboxamido)-2-(5,6,7,8-tetrahydronaphthalen-2-yl)propanoic acid], the half-inhibitory concentration (IC50) in assay [1] and in assay [2] was below 100 nM each time.
`O=C(NC[C@H](NS(=O)(=O)c1ccccc1)C(=O)O)[C@@H]1CCCN(CCCc2ccc3c(n2)NCCC3)C1` [Compound 272, (S)-2-(phenylsulfonamido)-3-((R)-1-(3-(5,6,7,8-tetrahydro-1,8-naphthyridin-2-yl)propyl)piperidine-3-carboxamido)propanoic acid]: the IC50 in assay [1] and in assay [2] was below 100 nM each time.
In the case of `O=C(NC1([C@H](C(=O)O)c2cccc(-c3ccccc3)c2)CC1)[C@@H]1CCCN(CCCc2ccc3c(n2)NCCC3)C1` [Compound 301-A, 2-([1,1′-biphenyl]-3-yl)-2-(1-((R)-1-(3-(5,6,7,8-tetrahydro-1,8-naphthyridin-2-yl)propyl)piperidine-3-carboxamido)cyclopropyl)acetic acid], the concentration for half-maximal inhibition (IC50) in assay [1] and in assay [2] was above 1000 nM each time.
On to `Cc1csc2ncnc(N[C@@H](CCO[C@@H]3CCCN(CCCc4ccc5c(n4)NCCC5)C3)C(=O)O)c12` [Compound 473], for which the IC50 in assay [1] and in assay [2] was above 1000 nM in each case.
In the case of `O=C(O)C[C@@H](NC(=O)[C@@H]1CCCN(CCCc2ccc3c(n2)NCCC3)C1)c1ccc2c(c1)CCCC2` (single isomer, unassigned) [Compound 204-B], the IC50 in assay [1] and in assay [2] was below 100 nM throughout.
For the molecule `O=C(NC[C@H](Nc1ncc(C(F)(F)F)cn1)C(=O)O)[C@@H]1CCCN(CCCc2ccc3c(n2)NCCC3)C1` [Compound 451], the IC50 in assay [1] and in assay [2] was below 100 nM each time.
With `O=C(O)C[C@H](NC(=O)[C@@H]1CCCN(CCc2ccc3c(n2)NCCC3)C1)c1ccccc1` [Compound 290, (S)-3-phenyl-3-((R)-1-(2-(5,6,7,8-tetrahydro-1,8-naphthyridin-2-yl)ethyl)piperidine-3-carboxamido)propanoic acid], the IC50 in assay [1] was above 1000 nM; in assay [2], 100 to 1000 nM.
For `O=C(O)[C@@H](CCO[C@H]1CCCN(CCCc2ccc3c(n2)NCCC3)C1)Nc1ncnc2ccccc12` [Compound 444] the same measures were above 1000 nM and above 1000 nM.
For `O=C(O)C[C@H](NC(=O)[C@@H]1CCCN(CCCc2ccc3c(n2)NCCC3)C1)c1cccc(-n2cccc2)c1` [Compound 536], in that order: below 100 nM and below 100 nM.
With `O=C(O)C[C@H](NC(=O)[C@@H]1CCCN(CCCc2ccc3c(n2)NCCC3)C1)c1cnc2ccccc2n1` [Compound 539], the IC50 in assay [1] and in assay [2] was below 100 nM throughout.
